Data as given in ChEMBL document CHEMBL4118196, “Design and synthesis of a series of bioavailable fatty acid synthase (FASN) KR domain inhibitors for cancer therapy” (Bioorg Med Chem Lett, 2018).
One block for each molecule: values may come before it.

Assays:
[1] = target: Fatty acid synthase (Homo sapiens, UniProt P49327)
Description: Inhibition of human full length FASN using [3H]-acetyl-CoA/malonyl-CoA as substrate after 60 mins in presence of NADPH by scintillation proximity assay

[2] = system: NCI-H929; test: Antiproliferative activity against human NCI-H929 cells in culture medium with 10% lipid-reduced serum after 4 days in presence of palmitate by ATP-Glo assay; type: functional, cell-based; details: NCI-H929, 96 h
[3] = Antiproliferative activity against human MM1R cells in culture medium with 10% lipid-reduced serum after 4 days in presence of palmitate by ATP-Glo assay; type: functional, cell-based; details: MM.1R, 96 h
[4] = system: HT-29; test: Antiproliferative activity against human HT-29 cells in culture medium with 10% lipid-reduced serum after 4 days by ATP-Glo assay; type: functional, cell-based; details: HT-29, 96 h
[5] = system: BT-20; test: Antiproliferative activity against human BT20 cells in culture medium with 10% lipid-reduced serum after 4 days in presence of palmitate by ATP-Glo assay; type: functional, cell-based; details: BT-20, 96 h
[6] = Oral bioavailability in mouse at 10 mg/kg; type: ADME, organism-based; details: in vivo
[7] = AUC in mouse at 10 mg/kg, po; type: ADME, organism-based; details: in vivo
[8] = Antiproliferative activity against human LL cells in culture medium with 10% lipid-reduced serum after 4 days in presence of palmitate by ATP-Glo assay; type: functional, cell-based; details: 96 h
[9] = Protein binding in human plasma; type: ADME, cell-free; details: read-out: PPB (converted)
[10] = system: OCI-Ly1; test: Antiproliferative activity against human OCI-LY1 cells in culture medium with 10% lipid-reduced serum after 4 days in presence of palmitate by ATP-Glo assay; type: functional, cell-based; details: OCI-Ly1, 96 h
[11] = system: A549; test: Antiproliferative activity against human A549 cells in culture medium with 10% lipid-reduced serum after 4 days in presence of palmitate by ATP-Glo assay; type: functional, cell-based; details: A549, 96 h
[12] = system: A2780; test: Antiproliferative activity against human A2780 cells in culture medium with 10% lipid-reduced serum after 4 days in presence of palmitate by MTT assay; type: functional, cell-based; details: A2780, 96 h
[13] = system: HL-60; test: Antiproliferative activity against human HL60 cells in culture medium with 10% lipid-reduced serum after 4 days in presence of palmitate by ATP-Glo assay; type: functional, cell-based; details: HL-60, 96 h
[14] = system: NCI-H929; test: Antiproliferative activity against human NCI-H929 cells in culture medium with 10% lipid-reduced serum after 4 days by ATP-Glo assay; type: functional, cell-based; details: NCI-H929, 96 h
[15] = system: A549; test: Antiproliferative activity against human A549 cells in culture medium with 10% lipid-reduced serum after 4 days by ATP-Glo assay; type: functional, cell-based; details: A549, 96 h
[16] = Antiproliferative activity against human LL cells in culture medium with 10% lipid-reduced serum after 4 days by ATP-Glo assay; type: functional, cell-based; details: 96 h
[17] = system: OCI-Ly1; test: Antiproliferative activity against human OCI-LY1 cells in culture medium with 10% lipid-reduced serum after 4 days by ATP-Glo assay; type: functional, cell-based; details: OCI-Ly1, 96 h
[18] = target: Cytochrome P450 2C9 (Homo sapiens, UniProt P11712); test: Inhibition of human CYP2C9; type: ADME
Chain of Cytochrome P450 2C9 (P11712 whole entry): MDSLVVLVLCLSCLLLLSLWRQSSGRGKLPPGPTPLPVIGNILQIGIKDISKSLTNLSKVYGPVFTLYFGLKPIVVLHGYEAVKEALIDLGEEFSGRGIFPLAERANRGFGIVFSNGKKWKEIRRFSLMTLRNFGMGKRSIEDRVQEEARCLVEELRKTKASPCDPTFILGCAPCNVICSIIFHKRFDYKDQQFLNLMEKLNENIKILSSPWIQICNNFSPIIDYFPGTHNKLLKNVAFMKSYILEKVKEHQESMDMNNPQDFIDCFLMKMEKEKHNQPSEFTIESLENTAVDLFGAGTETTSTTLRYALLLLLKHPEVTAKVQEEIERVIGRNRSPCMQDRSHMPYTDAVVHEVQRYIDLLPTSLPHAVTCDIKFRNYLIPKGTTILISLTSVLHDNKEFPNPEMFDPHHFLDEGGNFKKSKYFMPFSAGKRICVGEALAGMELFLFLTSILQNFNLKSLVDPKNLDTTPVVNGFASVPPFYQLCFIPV

[19] = system: LNCaP; test: Antiproliferative activity against human LNCAP cells in culture medium with 10% lipid-reduced serum after 4 days by ATP-Glo assay; type: functional, cell-based; details: 96 h
[20] = system: K562; test: Antiproliferative activity against human K562 cells in culture medium with 10% lipid-reduced serum after 4 days by ATP-Glo assay; type: functional, cell-based; details: K562, 96 h
[21] = Permeability in human Caco2 cells; type: ADME, cell-based; details: Caco-2, read-out: permeability
[22] = system: MDA-MB-468; test: Antiproliferative activity against human MDA-MB-468 cells in culture medium with 10% lipid-reduced serum after 4 days in presence of palmitate by ATP-Glo assay; type: functional, cell-based; details: MDA-MB-468, 96 h
[23] = Tmax in mouse at 10 mg/kg, po; type: ADME, organism-based; details: in vivo
[24] = Cmax in mouse at 10 mg/kg, po; type: ADME, organism-based; design: dose 10 mg/kg, route oral; details: in vivo
[25] = Antiproliferative activity against human MM1R cells in culture medium with 10% lipid-reduced serum after 4 days by ATP-Glo assay; type: functional, cell-based; details: MM.1R, 96 h
[26] = system: NCI-H460; test: Antiproliferative activity against human NCI-H460 cells in culture medium with 10% lipid-reduced serum after 4 days by ATP-Glo assay; type: functional, cell-based; details: NCI-H460, 96 h
[27] = Stability in mouse plasma; type: ADME, cell-free
[28] = target: Cytochrome P450 3A4 (Homo sapiens, UniProt P08684); test: Inhibition of human CYP3A4; type: ADME
[29] = system: NCI-H460; test: Antiproliferative activity against human NCI-H460 cells in culture medium with 10% lipid-reduced serum after 4 days in presence of palmitate by ATP-Glo assay; type: functional, cell-based; details: NCI-H460, 96 h
[30] = system: LP-1; test: Antiproliferative activity against human LP-1 cells in culture medium with 10% lipid-reduced serum after 4 days in presence of palmitate by ATP-Glo assay; type: functional, cell-based; details: LP-1, 96 h
[31] = system: PC-3M; test: Antiproliferative activity against human PC3M cells in culture medium with 10% lipid-reduced serum after 4 days by ATP-Glo assay; type: functional, cell-based; details: 96 h
[32] = Stability in mouse microsomes; type: ADME, Microsome
[33] = system: K562; test: Antiproliferative activity against human K562 cells in culture medium with 10% lipid-reduced serum after 4 days in presence of palmitate by ATP-Glo assay; type: functional, cell-based; details: K562, 96 h
[34] = system: MDA-MB-468; test: Antiproliferative activity against human MDA-MB-468 cells in culture medium with 10% lipid-reduced serum after 4 days by ATP-Glo assay; type: functional, cell-based; details: MDA-MB-468, 96 h
[35] = target: Cytochrome P450 2D6 (Homo sapiens, UniProt P10635); test: Inhibition of human CYP2D6; type: ADME
Chain of Cytochrome P450 2D6 (P10635 whole entry): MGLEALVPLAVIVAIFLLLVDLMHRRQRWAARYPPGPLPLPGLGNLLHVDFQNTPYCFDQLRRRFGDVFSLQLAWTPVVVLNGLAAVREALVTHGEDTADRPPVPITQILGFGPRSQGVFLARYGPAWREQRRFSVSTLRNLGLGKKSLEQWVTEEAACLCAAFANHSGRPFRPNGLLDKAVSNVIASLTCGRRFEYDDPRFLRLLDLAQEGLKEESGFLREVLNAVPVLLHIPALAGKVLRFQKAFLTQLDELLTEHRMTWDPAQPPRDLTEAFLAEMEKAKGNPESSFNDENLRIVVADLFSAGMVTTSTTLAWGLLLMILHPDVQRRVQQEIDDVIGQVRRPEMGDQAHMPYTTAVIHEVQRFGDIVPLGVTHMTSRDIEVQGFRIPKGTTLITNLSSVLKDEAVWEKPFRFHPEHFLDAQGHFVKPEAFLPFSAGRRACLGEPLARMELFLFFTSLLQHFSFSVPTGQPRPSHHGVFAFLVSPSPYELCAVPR

[36] = system: MV4-11; test: Antiproliferative activity against human MV4-11 cells in culture medium with 10% lipid-reduced serum after 4 days by ATP-Glo assay; type: functional, cell-based; details: MV4-11, 96 h
[37] = Protein binding in mouse plasma; type: ADME, cell-free; details: read-out: PPB (converted)
[38] = system: MV4-11; test: Antiproliferative activity against human MV4-11 cells in culture medium with 10% lipid-reduced serum after 4 days in presence of palmitate by ATP-Glo assay; type: functional, cell-based; details: MV4-11, 96 h
[39] = target: Cytochrome P450 1A2 (Homo sapiens, UniProt P05177); test: Inhibition human CYP1A2; type: ADME
Chain of Cytochrome P450 1A2 (P05177 whole entry): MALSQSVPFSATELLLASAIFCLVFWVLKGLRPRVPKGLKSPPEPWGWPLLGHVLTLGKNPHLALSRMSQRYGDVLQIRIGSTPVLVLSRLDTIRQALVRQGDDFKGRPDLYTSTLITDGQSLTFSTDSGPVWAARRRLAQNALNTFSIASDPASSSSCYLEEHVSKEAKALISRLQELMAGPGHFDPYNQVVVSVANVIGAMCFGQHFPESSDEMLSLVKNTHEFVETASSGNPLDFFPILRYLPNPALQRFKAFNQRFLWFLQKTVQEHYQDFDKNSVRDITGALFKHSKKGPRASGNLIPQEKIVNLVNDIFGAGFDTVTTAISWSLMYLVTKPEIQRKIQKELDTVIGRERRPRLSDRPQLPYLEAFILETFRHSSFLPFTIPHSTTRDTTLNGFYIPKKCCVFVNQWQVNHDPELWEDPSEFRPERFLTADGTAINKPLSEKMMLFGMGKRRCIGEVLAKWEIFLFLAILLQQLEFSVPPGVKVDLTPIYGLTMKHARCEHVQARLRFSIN

[40] = system: U2932; test: Antiproliferative activity against human U2932 cells in culture medium with 10% lipid-reduced serum after 4 days by ATP-Glo assay; type: functional, cell-based; details: U2932, 96 h
[41] = system: U2932; test: Antiproliferative activity against human U2932 cells in culture medium with 10% lipid-reduced serum after 4 days in presence of palmitate by ATP-Glo assay; type: functional, cell-based; details: U2932, 96 h
[42] = system: A2780; test: Antiproliferative activity against human A2780 cells in culture medium with 10% lipid-reduced serum after 4 days by MTT assay; type: functional, cell-based; details: A2780, 96 h
[43] = target: Cytochrome P450 2C8 (Homo sapiens, UniProt P10632); test: Inhibition of human CYP2C8; type: ADME
Chain of Cytochrome P450 2C8 (P10632 whole entry): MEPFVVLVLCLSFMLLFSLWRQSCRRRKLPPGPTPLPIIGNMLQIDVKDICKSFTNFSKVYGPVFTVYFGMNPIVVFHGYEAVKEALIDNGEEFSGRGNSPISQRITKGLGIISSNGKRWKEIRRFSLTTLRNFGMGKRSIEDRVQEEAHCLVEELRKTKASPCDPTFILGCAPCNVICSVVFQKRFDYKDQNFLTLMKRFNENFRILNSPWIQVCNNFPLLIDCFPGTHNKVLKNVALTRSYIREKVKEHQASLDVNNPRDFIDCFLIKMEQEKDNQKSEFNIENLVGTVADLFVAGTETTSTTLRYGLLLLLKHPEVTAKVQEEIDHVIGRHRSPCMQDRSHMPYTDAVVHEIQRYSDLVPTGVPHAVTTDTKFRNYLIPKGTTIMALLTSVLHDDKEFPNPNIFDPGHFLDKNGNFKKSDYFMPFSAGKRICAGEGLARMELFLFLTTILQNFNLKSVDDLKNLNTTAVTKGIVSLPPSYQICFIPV

[44] = Half life in mouse at 10 mg/kg, po; type: ADME, organism-based; details: in vivo
[45] = system: U-266; test: Antiproliferative activity against human U266 cells in culture medium with 10% lipid-reduced serum after 4 days in presence of palmitate by ATP-Glo assay; type: functional, cell-based; details: U-266, 96 h
[46] = target: Cytochrome P450 2C19 (Homo sapiens, UniProt P33261); test: Inhibition of human CYP2C19; type: ADME
Chain of Cytochrome P450 2C19 (P33261 whole entry): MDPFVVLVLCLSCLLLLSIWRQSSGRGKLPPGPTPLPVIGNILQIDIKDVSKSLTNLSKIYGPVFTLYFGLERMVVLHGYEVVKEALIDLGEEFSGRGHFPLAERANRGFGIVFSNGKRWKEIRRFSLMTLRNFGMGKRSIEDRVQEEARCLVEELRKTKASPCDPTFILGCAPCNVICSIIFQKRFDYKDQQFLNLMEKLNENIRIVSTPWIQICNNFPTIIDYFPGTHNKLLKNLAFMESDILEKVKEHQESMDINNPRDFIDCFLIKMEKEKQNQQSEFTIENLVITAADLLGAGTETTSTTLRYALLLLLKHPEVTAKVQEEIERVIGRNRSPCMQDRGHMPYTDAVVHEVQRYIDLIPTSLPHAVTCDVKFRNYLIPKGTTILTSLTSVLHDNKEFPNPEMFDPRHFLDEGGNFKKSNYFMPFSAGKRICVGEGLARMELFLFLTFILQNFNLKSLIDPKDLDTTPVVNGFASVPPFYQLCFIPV

[47] = system: HL-60; test: Antiproliferative activity against human HL60 cells in culture medium with 10% lipid-reduced serum after 4 days by ATP-Glo assay; type: functional, cell-based; details: HL-60, 96 h

Chain of Fatty acid synthase (P49327 whole entry): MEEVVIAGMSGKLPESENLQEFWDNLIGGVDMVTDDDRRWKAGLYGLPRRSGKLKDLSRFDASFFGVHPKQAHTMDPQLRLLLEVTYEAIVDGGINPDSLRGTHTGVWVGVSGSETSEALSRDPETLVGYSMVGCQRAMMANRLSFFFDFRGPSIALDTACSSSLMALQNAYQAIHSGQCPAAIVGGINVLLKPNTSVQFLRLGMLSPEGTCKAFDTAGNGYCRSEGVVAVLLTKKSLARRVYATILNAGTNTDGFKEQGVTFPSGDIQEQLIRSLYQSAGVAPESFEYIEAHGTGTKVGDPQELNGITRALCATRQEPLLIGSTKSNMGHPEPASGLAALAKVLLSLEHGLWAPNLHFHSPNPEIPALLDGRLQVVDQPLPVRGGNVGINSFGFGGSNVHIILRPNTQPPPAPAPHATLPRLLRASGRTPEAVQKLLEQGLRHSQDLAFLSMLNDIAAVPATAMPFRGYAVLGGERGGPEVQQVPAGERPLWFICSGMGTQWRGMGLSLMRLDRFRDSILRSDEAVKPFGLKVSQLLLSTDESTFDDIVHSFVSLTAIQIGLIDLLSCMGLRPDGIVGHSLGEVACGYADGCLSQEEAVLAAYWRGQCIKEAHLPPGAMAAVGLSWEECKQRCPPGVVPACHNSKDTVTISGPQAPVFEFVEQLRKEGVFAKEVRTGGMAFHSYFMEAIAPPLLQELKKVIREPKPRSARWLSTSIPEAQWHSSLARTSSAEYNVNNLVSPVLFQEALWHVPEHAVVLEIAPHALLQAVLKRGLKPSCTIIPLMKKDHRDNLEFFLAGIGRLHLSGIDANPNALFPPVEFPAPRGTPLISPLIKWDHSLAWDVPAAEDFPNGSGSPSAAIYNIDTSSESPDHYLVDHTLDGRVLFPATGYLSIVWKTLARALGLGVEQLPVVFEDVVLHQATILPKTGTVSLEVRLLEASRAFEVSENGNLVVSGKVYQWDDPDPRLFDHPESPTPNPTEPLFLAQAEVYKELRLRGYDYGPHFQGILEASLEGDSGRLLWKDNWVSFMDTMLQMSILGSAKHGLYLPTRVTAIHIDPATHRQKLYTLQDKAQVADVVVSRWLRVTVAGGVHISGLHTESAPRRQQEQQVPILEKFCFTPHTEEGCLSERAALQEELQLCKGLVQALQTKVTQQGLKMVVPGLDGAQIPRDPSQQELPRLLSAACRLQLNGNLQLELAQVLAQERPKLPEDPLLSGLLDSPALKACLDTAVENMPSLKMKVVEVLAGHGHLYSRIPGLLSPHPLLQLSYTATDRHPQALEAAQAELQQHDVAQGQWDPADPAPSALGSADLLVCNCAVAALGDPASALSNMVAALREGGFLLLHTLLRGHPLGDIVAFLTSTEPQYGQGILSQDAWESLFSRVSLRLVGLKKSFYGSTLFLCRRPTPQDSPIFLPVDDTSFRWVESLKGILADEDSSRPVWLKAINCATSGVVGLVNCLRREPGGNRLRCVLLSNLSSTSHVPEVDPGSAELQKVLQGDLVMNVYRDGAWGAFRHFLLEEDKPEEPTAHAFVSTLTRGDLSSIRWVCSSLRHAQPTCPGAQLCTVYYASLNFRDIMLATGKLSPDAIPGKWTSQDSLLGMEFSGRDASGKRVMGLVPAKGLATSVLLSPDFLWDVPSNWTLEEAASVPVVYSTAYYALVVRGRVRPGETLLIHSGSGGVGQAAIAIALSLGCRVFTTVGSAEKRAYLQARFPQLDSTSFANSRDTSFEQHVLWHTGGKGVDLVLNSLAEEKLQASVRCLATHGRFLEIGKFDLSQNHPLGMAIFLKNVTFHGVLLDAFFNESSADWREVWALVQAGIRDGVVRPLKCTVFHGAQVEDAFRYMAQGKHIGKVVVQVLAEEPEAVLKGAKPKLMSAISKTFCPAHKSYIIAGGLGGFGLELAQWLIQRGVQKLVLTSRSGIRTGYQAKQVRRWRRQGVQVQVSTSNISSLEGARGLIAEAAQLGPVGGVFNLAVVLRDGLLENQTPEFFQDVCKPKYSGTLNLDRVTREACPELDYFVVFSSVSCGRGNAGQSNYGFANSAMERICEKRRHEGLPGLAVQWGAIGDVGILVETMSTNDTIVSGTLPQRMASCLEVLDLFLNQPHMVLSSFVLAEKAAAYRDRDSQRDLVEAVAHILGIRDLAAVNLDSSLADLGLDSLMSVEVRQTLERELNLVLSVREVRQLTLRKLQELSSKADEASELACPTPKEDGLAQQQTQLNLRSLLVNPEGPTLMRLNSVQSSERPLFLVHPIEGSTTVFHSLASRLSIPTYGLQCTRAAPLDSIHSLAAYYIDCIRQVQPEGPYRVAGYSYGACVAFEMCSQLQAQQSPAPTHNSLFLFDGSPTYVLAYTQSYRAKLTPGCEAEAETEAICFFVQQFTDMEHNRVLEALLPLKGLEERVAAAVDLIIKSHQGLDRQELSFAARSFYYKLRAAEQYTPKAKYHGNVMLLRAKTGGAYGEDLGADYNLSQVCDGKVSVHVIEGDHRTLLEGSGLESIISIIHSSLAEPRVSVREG

Structure (SMILES): Cn1ccc(C(=O)N2CC[C@@H](CN3C(=O)C4(CC4)N=C3c3ccc(-c4ccc5occc5c4)cc3)C2)n1
IC50 [1]: 450 nM

Structure (SMILES): Cn1ncc2cc(-c3cnc(C4=NC5(CC5)C(=O)N4C[C@@H]4CCN(C(=O)C5CC5)C4)nc3)ccc21
IC50 [1]: 33100 nM

Structure (SMILES): N#CC1(C(=O)N2CC[C@@H](CN3C(=O)C4(CC4)N=C3c3ccc(-c4ccc5occc5c4)cc3)C2)CC1
IC50 [1]: 590 nM

Structure (SMILES): O=C([C@H]1CCCO1)N1CC[C@@H](CN2C(=O)C3(CC3)N=C2c2ccc(-c3ccc4occc4c3)cc2)C1
IC50 [1]: 300 nM

Structure (SMILES): Cn1cc(-c2ccc(-c3ccc(C4=NC5(CC5)C(=O)N4C[C@@H]4CCN(C(=O)C5CC5)C4)cc3)cc2)cn1
EC50 [2]: > 10000 nM
EC50 [3]: > 10000 nM
EC50 [4]: 7940 nM
EC50 [5]: > 10000 nM
bioavailability [6]: 60.6%
AUC [7]: 11100 ng·h/mL
EC50 [8]: 9330 nM
fraction unbound [9]: 0.059
EC50 [10]: 6760 nM
EC50 [11]: > 10000 nM
EC50 [12]: > 10000 nM
EC50 [13]: 6310 nM
EC50 [14]: 3720 nM
EC50 [15]: 20 nM
EC50 [16]: 590 nM
EC50 [17]: 55 nM
IC50 [18]: 7900 nM
EC50 [19]: 66 nM
EC50 [20]: 110 nM
Papp [21]: 7.1 ×10⁻⁶ cm/s
EC50 [22]: > 10000 nM
Tmax [23]: 2 h
Cmax [24]: 2030 ng/mL
EC50 [25]: 170 nM
EC50 [26]: 36 nM
Stability [27]: Stable
IC50 [28]: > 10000 nM
EC50 [29]: > 10000 nM
EC50 [30]: > 10000 nM
EC50 [31]: 25 nM
Stability [32]: Stable
EC50 [33]: 9330 nM
EC50 [34]: 26 nM
IC50 [35]: > 10000 nM
EC50 [36]: 59 nM
fraction unbound [37]: 0.034
EC50 [38]: > 10000 nM
IC50 [39]: > 10000 nM
EC50 [40]: 190 nM
EC50 [41]: 3020 nM
EC50 [42]: 13 nM
IC50 [43]: > 10000 nM
half-life [44]: 2.5 h
EC50 [45]: > 10000 nM
IC50 [46]: > 10000 nM
EC50 [47]: 120 nM

Structure (SMILES): O=C(CC(F)(F)F)N1CC[C@@H](CN2C(=O)C3(CC3)N=C2c2ccc(-c3ccc4occc4c3)cc2)C1
IC50 [1]: 170 nM

The remaining lines, values ahead:

IC50 [1]: 23 nM
Structure (SMILES): O=C(C1CC1)N1CC[C@@H](CN2C(=O)C3(CC3)N=C2c2ccc(-c3ccc(-c4ccncc4)cc3)cc2)C1

IC50 [1]: 36 nM
Structure (SMILES): O=C(N1CC[C@@H](CN2C(=O)C3(CC3)N=C2c2ccc(-c3ccc4occc4c3)cc2)C1)C1(O)CC1

IC50 [1]: 79 nM
Structure (SMILES): O=C([C@@H]1CCCO1)N1CC[C@@H](CN2C(=O)C3(CC3)N=C2c2ccc(-c3ccc4occc4c3)cc2)C1

IC50 [1]: 28 nM
Structure (SMILES): CC1(C(=O)N2CC[C@@H](CN3C(=O)C4(CC4)N=C3c3ccc(-c4ccc5occc5c4)cc3)C2)CC1
